Source: patent EP0640690A1, “Monoclonal antibodies specific for 5-dihydrotestosterone” (ELI LILLY AND COMPANY, priority 1993, dated 1995)

What was measured:
[1] = test system: monoclonal antibody MoAb 276-1 (anti-5-dihydrotestosterone, hybridoma ATCC HB 11410); assay: competitive ELISA: competition with bound avidin/5-DHT complex for the antibody; format: binding, mouse; conditions: for IC50: concentration inhibiting 50% of antibody binding to immobilized avidin/5-DHT, read-out: IC₅₀
Method: The usual method of quantifying specificity of an antibody is by way of a competitive ELISA assay, a technique which is well known to one of skill in the art. In such an assay the reactivity is determined by binding an avidin/5-DHT complex to a support, such as a well in a microtiter plate, as described infra. A limited amount of anti-5-DHT antibody (such as MoAb 276-1) is then added simultaneously with differing concentrations of 5-dihydrotestosterone, which competes with the bound 5-DHT for the antibody. Unbound antibody is then removed from the wells. The concentration of 5-dihydrotestosterone which inhibits 50% of the binding of the antibody is designated as the IC₅₀. The experiment is run in parallel using testosterone in place of the 5-dihydrotestosterone. The IC₅₀ of the testosterone is then compared with the IC₅₀ of the 5-dihydrotestosterone to give a relative binding affinity.
The most preferred antibody of this invention, MoAb 276-1, has an IC₅₀ of 537 nM for 5-dihydrotestosterone, while an IC₅₀ of 4568 nM was obtained for testosterone. This antibody, therefore, is 8.5 times more specific for 5-dihydrotestosterone than for testosterone. The hybridoma producing the monoclonal antibody MoAb 276-1 is available from the American Type Culture […] (ATCC) in Rockville, Maryland, 20852 under accession number ATCC HB 11410.

[2] = test system: 5-α-reductase enzyme from a female rat liver preparation; assay: 5-α-reductase inhibitor assay: 5-DHT formed from testosterone measured by MoAb 276-1 ELISA; format: biochemical; conditions: concentration inhibiting 100% of activity; testosterone substrate, NADPH, pH 6.5, 37°C, 20 minutes; one experiment
Method: This reaction mixture was incubated at 37°C for 20 minutes. The enzyme was then inactivated by incubating the reaction mixture at 80°C for 10 minutes. […] In additon, serial dilutions of the reaction mixture were made and 100 µl of each of these dilutions was added to separate wells. To each well was added 100 µl (0.35 µg) of MoAb 276-1. This plate was then incubated at 37°C for 2 hours. After this incubation period, the plate was washed four times with phosphate buffered saline (PBS). After the washing, 200 µl of anti-mouse antibody/alkaline phosphatase conjugate was added to each well. This was then incubated at 37°C for 1 hour. After the incubation each well was washed four times with PBS. To each well was then added 200 µl of p-nitrophenylphosphate. This reaction was then incubated for one hour at 37°C. Spectrophotometric measurement of each well was then performed, reading at 410 nm. This measurement provided the baseline activity of 5-α-reductase activity without an inhibitor. […] This compound was prepared as described in U.S. Patent 5,239,075, issued August 24, 1993, which is herein incorporated by reference.

Compound	IC50 [1] [nM]	IC₁₀₀ [2] [µM]	times more specific for 5-dihydrotestosterone than for testosterone ([1]; ratio of IC₅₀ of testosterone to IC₅₀ of 5-dihydrotestosterone) [times]
C[C@]12CC[C@H]3[C@@H](CCC4=CC(=O)CC[C@@]43C)[C@@H]1CC[C@@H]2O [testosterone]	4570	–	–
Cc1ccc2c(c1)CC[C@@H]1[C@@H]2CCC(=O)N1C (racemic) [trans-dl-4,8-dimethyl-1,2,3,4,4a,5,6,10b-octahydrobenzo-[f]quinolin-3-one]	–	0.3	–
C[C@]12CCC(=O)C[C@@H]1CC[C@@H]1[C@@H]2CC[C@]2(C)[C@@H](O)CC[C@@H]12 [5-dihydrotestosterone, 17β-hydroxy-5α-androstan-3-one]	537	–	8.5
